Experimental findings from patent US8969406B2, “Use of compound for inhibiting glutathione s-transferase omega 1 activity and method for synthesizing the same” (China Medical University, priority 2013, dated 2015) are described below.

The subject of data set [1] is human oralepithelial carcinoma cell line (KB). As to the kind of experiment: In vitro cytotoxicity assay, cancer cell growth inhibition, KB cell. From the text: (§1) For evaluating the in vitro growth inhibitory concentrations ([…], μM) of the compound represented by Formula 1 of the present disclosure, human oralepithelial carcinoma cell line (KB), multidrug-resistant nasopharyngeal carcinoma cell line (KB-Vin), human lung adenocarcinoma cell line (A549), and prostate cancer cell line (DU145) were used in the following experiment. The GI50 values of Paclitaxel, an anticancer chemotherapy drug, were used as control.

The subject of data set [2] is human lung adenocarcinoma cell line (A549). The data set can be described thus: In vitro cytotoxicity assay, cancer cell growth inhibition, A549 cell.
Source text: as §1

For data set [3], the system named is prostate cancer cell line (DU145). The data set can be described thus: In vitro cytotoxicity assay, cancer cell growth inhibition, DU145 cell.
Source text: as §1

Data set [4] concerns multidrug-resistant nasopharyngeal carcinoma cell line (KB-Vin). The data set can be described thus: In vitro cytotoxicity assay, cancer cell growth inhibition, KB-Vin cell.
Source text: as §1

Data set [5] addresses T1, GSTO1 (Homo sapiens, UniProt P78417).
T1 sequence (P78417 1-241): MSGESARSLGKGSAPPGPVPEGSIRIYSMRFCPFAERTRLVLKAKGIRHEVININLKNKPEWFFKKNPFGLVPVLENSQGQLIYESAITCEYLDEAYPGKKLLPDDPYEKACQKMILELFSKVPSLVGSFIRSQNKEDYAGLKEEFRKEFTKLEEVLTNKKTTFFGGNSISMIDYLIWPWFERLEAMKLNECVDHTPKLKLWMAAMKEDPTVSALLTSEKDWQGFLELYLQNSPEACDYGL
As to the kind of experiment: Enzyme activity assay of GST omega 1 (GSTO1) with 4NPG substrate. The class given is biochemical. The following applies: 2 nM GSTO1, 0.5 mM 4NPG, 30 min 25° C. pre-reaction, O.D.305. The method, then: First, 100 μl mixture having 2 nM GSTO1, 100 mM Tris (pH 8.0), 1.5 mM EDTA, and 10 mM 2-mercaptoethanol were added into each well of an UV-penetrable 96-well culture plate. Besides, 100 μl buffer having 100 mM Tris (pH 8.0), 1.5 mM EDTA, and 10 mM 2-mercaptoethanol were used as blank control.
Then, 4NPG were added to each of the aforementioned mixture to a final concentration of 0.5 mM.

The mark [6] stands for this setting: Homo sapiens, A549, read-out: In vitro cytotoxicity assay: GI50 (μM) A549 cell.
Setting [7] is: Homo sapiens, DU-145, read-out: In vitro cytotoxicity assay: GI50 (μM) DU145 cell.
Setting [8] is: read-out: In vitro cytotoxicity assay: GI50 (μM) A549 cell, A549 cell.
Setting [9] is: read-out: In vitro cytotoxicity assay: GI50 (μM) DU145 cell, DU145 cell.

Each structure is given as a SMILES string. Where two headings read alike, the source gives them in different places.

With `O=C1C=CC(O)(c2cc(=O)c3c(ccc4ccccc43)o2)C=C1` [Compound main structure], the “In vitro cytotoxicity assay: GI50 (μM) KB cell” value in data set [1] (KB cell) was 0.865 µM. Also, the GI50 (as a rule, the concentration giving 50% growth inhibition) in data set [2] (setting [6]) came to 0.763 µM; in data set [3] (setting [7]) it was 0.799 µM. Moreover, in data set [4] (KB-Vin cell), the “In vitro cytotoxicity assay: GI50 (μM) KB-Vin cell” value was found to be 0.674 µM.
Turning to `CC(=O)O[C@H]1C(=O)[C@@]2(C)[C@H]([C@H](OC(=O)c3ccccc3)[C@]3(O)C[C@H](OC(=O)[C@H](O)[C@@H](NC(=O)c4ccccc4)c4ccccc4)C(C)=C1C3(C)C)[C@]1(OC(C)=O)CO[C@@H]1C[C@@H]2O` [Paclitaxel, reference compound], the “GI50 KB cell (control)” value in data set [1] (KB cell) was found to be 0.00464 µM. In addition, the GI50 was 0.00356 µM in data set [2] (Homo sapiens, A549, read-out: GI50 A549 cell (control)) and 0.003 µM in data set [3] (Homo sapiens, DU-145, read-out: GI50 DU145 cell (control)). For the same molecule, in data set [4] (KB-Vin cell), the “GI50 KB-Vin cell (control)” value is >1 µM.
Consider `O=C1C=CC(O)(c2cc(=O)c3c(O)cc(O)cc3o2)C=C1` [compound A], for which the “inhibitory effect against GSTO1 enzyme activity (competition with 4NPG, FIG. 1)” value in data set [5] was “slight”.
The same measure, in the same setting: the value for `COc1ccc2c(ccc3oc(C4(O)C=CC(=O)C=C4)cc(=O)c32)c1` [compound B] was “slight”.
Turning to `O=C1C=CC(O)(c2cc(=O)c3c(ccc4cc(OC(=O)N5CCOCC5)ccc43)o2)C=C1` [side chain No. 6], the “In vitro cytotoxicity assay: GI50 (μM) KB cell” value in data set [1] was 0.607 µM. In addition, the GI50 in data set [2] is 0.603 µM; in data set [3], 0.617 µM. Moreover, the “In vitro cytotoxicity assay: GI50 (μM) KB-Vin cell” value in data set [4] turned out to be 0.64 µM.
On the same counts, the results for `O=C1C=CC(O)(c2cc(=O)c3c(ccc4cc(OC(=O)N5CCCCC5)ccc43)o2)C=C1` [side chain No. 7] are 0.615 µM, 0.536 µM, 0.522 µM and 0.619 µM.
For the molecule `COc1ccc2c(ccc3oc(C4(O)C=CC(=O)C=C4)cc(=O)c32)c1` [side chain No. 8], in data set [1] (KB cell), the “In vitro cytotoxicity assay: GI50 (μM) KB cell” value stood at 0.871 µM. Moreover, the 50% growth inhibitory concentration (GI50) came to 0.811 µM in data set [2] (setting [8]) and 0.707 µM in data set [3] (setting [9]). Also, in data set [4] (KB-Vin cell), the “In vitro cytotoxicity assay: GI50 (μM) KB-Vin cell” value was 0.692 µM.
For `COCOc1ccc2c(ccc3oc(C4(O)C=CC(=O)C=C4)cc(=O)c32)c1` [side chain No. 10] the same measures were 0.786 µM, 0.819 µM, 0.865 µM and 0.766 µM.
As for `CC(C)CCOc1ccc2c(ccc3oc(C4(O)C=CC(=O)C=C4)cc(=O)c32)c1` [side chain No. 11], the “In vitro cytotoxicity assay: GI50 (μM) KB cell” value in data set [1] (KB cell) was 0.2 µM. Also, the values for the 50% growth inhibitory concentration (GI50) in data set [2] (setting [6]) and in data set [3] (setting [7]) were 0.382 µM and 0.231 µM, respectively. Also, the “In vitro cytotoxicity assay: GI50 (μM) KB-Vin cell” value in data set [4] (KB-Vin cell) was 0.269 µM.
On the same counts, the results for `CC(C)CCCC(C)CCOc1ccc2c(ccc3oc(C4(O)C=CC(=O)C=C4)cc(=O)c32)c1` (centres unmarked) [side chain No. 12] are 0.067 µM, 0.233 µM, 0.065 µM and 0.335 µM.
With `CCC(C)CCCC(C)CCOc1ccc2c(ccc3oc(C4(O)C=CC(=O)C=C4)cc(=O)c32)c1` (centres unmarked) [side chain No. 13], the “In vitro cytotoxicity assay: GI50 (μM) KB cell” value in data set [1] was found to be 1.115 µM. Moreover, the GI50 in data set [2] was found to be 4.27 µM; in data set [3] it was 1.26 µM. In addition, in data set [4], the “In vitro cytotoxicity assay: GI50 (μM) KB-Vin cell” value was 1.883 µM.
For `CN(C)CCOc1ccc2c(ccc3oc(C4(O)C=CC(=O)C=C4)cc(=O)c32)c1` [side chain No. 14], the “In vitro cytotoxicity assay: GI50 (μM) KB cell” value in data set [1] (KB cell) is 0.683 µM. Besides, the results for the concentration for 50% growth inhibition (GI50) in data set [2] (setting [8]) and in data set [3] (setting [9]) were 0.754 µM and 0.808 µM, respectively. Further, the “In vitro cytotoxicity assay: GI50 (μM) KB-Vin cell” value in data set [4] (KB-Vin cell) turned out to be 0.841 µM.
For the molecule `CCN(CC)CCOc1ccc2c(ccc3oc(C4(O)C=CC(=O)C=C4)cc(=O)c32)c1` [side chain No. 15], in data set [1], the “In vitro cytotoxicity assay: GI50 (μM) KB cell” value came out at 0.644 µM. The 50% growth inhibitory concentration (GI50) was 0.551 µM in data set [2] and 0.685 µM in data set [3]. For the same molecule, in data set [4], the “In vitro cytotoxicity assay: GI50 (μM) KB-Vin cell” value worked out at 1.325 µM.
On to `CC(C)N(CCOc1ccc2c(ccc3oc(C4(O)C=CC(=O)C=C4)cc(=O)c32)c1)C(C)C` [side chain No. 16], for which the “In vitro cytotoxicity assay: GI50 (μM) KB cell” value in data set [1] is 0.55 µM. The GI50 in data set [2] was 0.584 µM; in data set [3], 0.62 µM. For the same molecule, the “In vitro cytotoxicity assay: GI50 (μM) KB-Vin cell” value in data set [4] was 0.682 µM.
As for `O=C1C=CC(O)(c2cc(=O)c3c(ccc4cc(OCCN5CCCCC5)ccc43)o2)C=C1` [side chain No. 17], in data set [1], the “In vitro cytotoxicity assay: GI50 (μM) KB cell” value is 0.499 µM. Also, the GI50 in data set [2] is 0.483 µM; in data set [3], 0.541 µM. In addition, the “In vitro cytotoxicity assay: GI50 (μM) KB-Vin cell” value in data set [4] was determined as 0.675 µM.
Consider `O=C1C=CC(O)(c2cc(=O)c3c(ccc4cc(OCCN5CCCC5)ccc43)o2)C=C1` [side chain No. 18], for which the “In vitro cytotoxicity assay: GI50 (μM) KB cell” value in data set [1] is 0.552 µM. Besides, the GI50 in data set [2] was found to be 0.628 µM; in data set [3], 0.693 µM. Besides, in data set [4], the “In vitro cytotoxicity assay: GI50 (μM) KB-Vin cell” value was 1.108 µM.
`O=C1C=CC(O)(c2cc(=O)c3c(ccc4cc(O)ccc43)o2)C=C1` [side chain No. 19]: the “In vitro cytotoxicity assay: GI50 (μM) KB cell” value in data set [1] (KB cell) amounted to 0.944 µM. Besides, the GI50 in data set [2] (setting [8]) was found to be 0.806 µM; in data set [3] (setting [9]), 0.709 µM. In addition, the “In vitro cytotoxicity assay: GI50 (μM) KB-Vin cell” value in data set [4] (KB-Vin cell) came to 0.738 µM.
